Patent publication US12617777B2, “GPR84 antagonists and uses thereof” (Liminal BioSciences Limited, priority 2021, dated 2026)
pIC50: −log10 of the molar value.

Biological target: T1, human GPR84 receptor (Homo sapiens, UniProt Q9NQS5)
T1 construct: host or cells: HEK293, transient transfection
Assay: Gαi biosensor BRET assay in HEK293 cells (antagonism of ZQ-16)
Format: cell-based
Settings: for inhibition at 2 µM: HEK293, single concentration 2 μM (designated A); for pIC50: HEK293 cells, antagonism of 200 nmol/L ZQ-16; for inhibition at 10 µM: HEK293, single concentration 10 μM (designated F); for inhibition at 25 µM: HEK293, single concentration 25 μM (designated I)
How it was run: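 Antagonist mode: test compound 5 min at 37° C, followed by ZQ-16 agonist (200 nmol/L, 5 min, room temperature), in HEK293 cells transfected with GPR84 plus Rluc8-tagged Gαi2, GFP10-Gγ2 and Gβ1. Readout as GFP10/Rluc8 emission ratio after 5 μmol/L coelenterazine 400A, net of Rluc8-only and vehicle signal.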

T1 sequence (Q9NQS5 whole entry): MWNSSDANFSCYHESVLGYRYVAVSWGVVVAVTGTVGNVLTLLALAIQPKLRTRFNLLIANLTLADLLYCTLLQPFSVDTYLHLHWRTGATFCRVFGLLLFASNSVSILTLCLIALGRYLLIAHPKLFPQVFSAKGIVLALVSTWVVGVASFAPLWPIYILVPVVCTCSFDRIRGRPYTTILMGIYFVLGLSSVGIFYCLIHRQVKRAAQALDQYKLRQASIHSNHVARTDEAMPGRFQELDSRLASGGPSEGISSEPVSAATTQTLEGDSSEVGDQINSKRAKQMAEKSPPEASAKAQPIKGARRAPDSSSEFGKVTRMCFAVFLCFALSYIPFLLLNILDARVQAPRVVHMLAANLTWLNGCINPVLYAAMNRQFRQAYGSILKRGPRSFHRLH

Row | SMILES | inhibition at 10 µM | also measured
1 | CC1(C)COC(Cn2cc(-c3ncc(C#CCN4CC(C)(C)C4)cc3OC3CC3)nn2)OC1 [Compound I-709] | – | inhibition at 2 µM: > 75%; pIC50: ≥ 6.52
2 | Cc1cc(C#CC2CC2)ccc1-c1cnn(CC2CCCCO2)c1C (stereo not shown) [Compound I-327] | ≤ 25% | –
3 | COC(c1cn(Cc2ncccn2)nn1)c1cc(C#CC2CC2)ccc1C (stereo not shown) [Compound I-674] | – | inhibition at 2 µM: > 75%; pIC50: 6.00 to 6.52
4 | Cc1cc(OCc2ccccc2)ccc1-c1cn(CC2CCCCO2)nn1 (stereo not shown) [Compound I-52] | – | inhibition at 25 µM: ≤ 25%
5 | Clc1ccc(C#CC2CC2)cc1-c1cn(CC2CCCCO2)nn1 (stereo not shown) [Compound I-134] | ≤ 25% | –
6 | Cc1cc(C#CC2CC2)cnc1-c1cn(CC2CC(C)(C)O2)nn1 (stereo not shown) [Compound I-420] | 50 to 75% | –
7 | COC(c1cn(CC2OCC(C)(C)CO2)nn1)c1cc(C#CC2CC2)c(F)cc1C (stereo not shown) [Compound I-724] | – | inhibition at 2 µM: > 75%; pIC50: ≥ 6.52
8 | Cc1cc(C#CC2(O)CC2)ccc1-c1cn(CC2CCCCO2)nn1 (stereo not shown) [Compound I-215] | 50 to 75% | –
9 | Cc1c(-c2ccc(C#CC3CC3)cc2)nnn1C[C@H]1CCCCO1 [Compound I-29] | – | inhibition at 25 µM: 50 to 75%
10 | O=c1oc(CC2COCCO2)nn1-c1ccc(C#CC2CC2)cc1 (stereo not shown) [Compound I-10, 5-((1,4-dioxan-2-yl)methyl)-3-(4-(cyclopropylethynyl)phenyl)-1,3,4-oxadiazol-2(3H)-one] | – | inhibition at 25 µM: ≤ 25%
11 | CCn1cc(-c2ccc(-c3cn(CC4CCCCO4)nn3)c(C)c2)cn1 (stereo not shown) [Compound I-194] | ≤ 25% | –
12 | Cc1cc(N2CCC[C@@H](N(C)Cc3ccccc3)C2)ccc1-c1cn(C[C@H]2CCCCO2)nn1 (relative stereo) [Compound I-238] | 50 to 75% | pIC50: 5.52 to 6.00
13 | CC(C)Oc1cc(N2CC(C)(CO)C2)ccc1-c1cn(CC2CC(C)(C)O2)nn1 (stereo not shown) [Compound I-677] | – | inhibition at 2 µM: > 75%; pIC50: ≥ 6.52
14 | Cc1cc(C(=O)n2ccc(N)n2)ccc1-c1cn(CC2CCCCO2)nn1 (stereo not shown) [Compound I-438] | 25 to 50% | –
15 | COC(c1cccc(C#CC2CC2)c1)c1cn(CC2CCCCO2)nn1 (stereo not shown) [Compound I-490] | > 75% | pIC50: 6.00 to 6.52
16 | Cc1ccc(C#CC2CC2)cc1Cc1nnnn1CC1CCCCO1 (stereo not shown) [Compound I-419] | 25 to 50% | –
17 | CC(=O)NCC#Cc1ccc(-c2cn(C[C@H]3CCCCO3)nn2)c(C)c1 [Compound I-193] | 25 to 50% | –
18 | Cc1cc(C#CCNc2ccncc2)ccc1-c1cn(CC2CCCCO2)nn1 (stereo not shown) [Compound I-122] | 25 to 50% | –
19 | CCc1cc(C#CCN(C)CC2CC2)cnc1-c1cn(CC2CCCCO2)nn1 (stereo not shown) [Compound I-276] | > 75% | –
20 | Cc1cc(C#CC2CC2)cnc1-c1cn(CC2CCCO2)nn1 (stereo not shown) [Compound I-204] | 25 to 50% | –
21 | CC1(C)CCC(Cn2cc(-c3ncc(C#CC4CC4)cc3OC3CC3)nn2)OC1 (stereo not shown) [Compound I-739] | – | inhibition at 2 µM: > 75%; pIC50: ≥ 6.52
22 | Cc1cn(CC2CCCCO2)nc1-c1ccc(C#CC2CC2)cc1 (stereo not shown) [Compound I-316] | – | inhibition at 25 µM: ≤ 25%
23 | Cc1cc(N2CCC(O)C2)ccc1-c1cn(CC2CCCCO2)nn1 (stereo not shown) [Compound I-436] | ≤ 25% | –
24 | CC1(C)COC(Cn2cc(-c3ncc(C#CCN4CC(C)(C)C4)cc3Cl)nn2)OC1 [Compound I-777] | – | pIC50: 5.52 to 6.00

Row | SMILES | inhibition at 10 µM | also measured
25 | Cc1cc(C#CC2CC2)ccc1-c1cn(CC2OCc3ccccc32)nn1 (stereo not shown) [Compound I-100] | ≤ 25% | –
26 | C(#CC1CC1)c1ccc(-c2cnn(CC3CCCCO3)c2)cc1 (stereo not shown) [Compound I-317] | – | inhibition at 25 µM: ≤ 25%
27 | Cc1ccc(C#CC2CC2)cc1Cc1cn(CC2CC(C)(C)CO2)nn1 (stereo not shown) [Compound I-643] | – | inhibition at 2 µM: 50 to 75%
28 | COC(C)Cn1cc(-c2ccc(C#CC3CC3)cc2C)nn1 (stereo not shown) [Compound I-132] | 25 to 50% | –
29 | C(#CC1CC1)c1ccc(-c2ccn(CC3CCCCO3)n2)cc1 (stereo not shown) [Compound I-321] | – | inhibition at 25 µM: 25 to 50%
30 | Cc1ccc(-c2ccc(-c3cn(C[C@H]4CCCCO4)nn3)nc2)cn1 [Compound I-32] | ≤ 25% | –
31 | Cc1cc(N2CC3(CCN(C(=O)c4ccccc4)CC3)C2)ccc1-c1cn(CC2CCCCO2)nn1 (stereo not shown) [Compound I-310] | 50 to 75% | pIC50: 5.52 to 6.00
32 | COCC#Cc1ccc(-c2nnn(CC3CCCCO3)c2C)cc1 (stereo not shown) [Compound I-244] | 25 to 50% | –
33 | Cc1ccc(-c2cccc(-c3nnn(C[C@H]4CCCCO4)n3)c2)cn1 [Compound I-5] | – | inhibition at 25 µM: 25 to 50%
34 | CCN(CC)c1cc(N2CC(C)(CO)C2)c(F)cc1-c1cn(CC2OCC3(CC3)CO2)nn1 [Compound I-801] | – | inhibition at 2 µM: > 75%; pIC50: ≥ 6.52
35 | COC(=O)C1(C)CN(c2ccc(-c3cn(CC4CCCCO4)nn3)c(C)c2)C1 (stereo not shown) [Compound I-409] | 25 to 50% | –
36 | CN1Cc2c(C#CC3CC3)ccc(-c3cn(CC4CCCCO4)nn3)c2C1 (stereo not shown) [Compound I-268] | ≤ 25% | –
37 | O=C(O)c1cnc(-c2cn(CC3OCC4(CC4)CO3)nn2)c(OC2CC2)c1 [Compound I-855] | – | inhibition at 2 µM: > 75%
38 | Cc1c(-c2ccc(C#CC3CC3)cc2)nnn1CC1CCCO1 (stereo not shown) [Compound I-115] | ≤ 25% | –
39 | Cc1ccc(C#CC2CC2)cc1Cc1cn(CC2COc3ncccc3O2)nn1 (stereo not shown) [Compound I-552] | – | inhibition at 2 µM: 25 to 50%
40 | Cc1cc(N2CCN(C)CC2)ccc1-c1cn(C[C@H]2CCCCO2)nn1 [Compound I-111] | ≤ 25% | –
41 | COC1CCN(c2ccc(-c3cn(CC4CCCCO4)nn3)c(C)c2)C1 (stereo not shown) [Compound I-463] | – | inhibition at 2 µM: ≤ 25%
42 | Cc1cc(N2CC3(CCCN3)C2)ccc1-c1cn(CC2CCCCO2)nn1 (stereo not shown) [Compound I-147] | ≤ 25% | –
43 | Cc1cc(NC(=O)N2CCCC2)ccc1-c1cn(CC2CCCCO2)nn1 (stereo not shown) [Compound I-110] | ≤ 25% | –
44 | Cc1cc(C#CC2CC2)ccc1-c1cn(CC2CNCCO2)nn1 (stereo not shown) [Compound I-180] | ≤ 25% | –
45 | Cc1cc(C#CCN2CCC(F)(F)CC2)cnc1-c1cn(CC2CCCCO2)nn1 (stereo not shown) [Compound I-250] | 50 to 75% | –
46 | Cc1cc(OC2CN(Cc3ccccn3)C2)ccc1-c1cn(CC2CCCCO2)nn1 (stereo not shown) [Compound I-514] | – | inhibition at 2 µM: ≤ 25%
47 | Cc1cc(C#CC2CC2)ccc1-c1cn(Cc2ncco2)nn1 [Compound I-143] | ≤ 25% | –
48 | Cc1cc(C#CCNc2ccccc2)ccc1-c1cn(CCOc2ccccn2)nn1 [Compound I-135] | ≤ 25% | –

The next lines start with results.

Row | inhibition at 10 µM | SMILES | also measured
49 | ≤ 25% | Cc1cc(C#CC2CC2)ccc1-c1cn(CC2CCCC(=O)N2)nn1 (stereo not shown) [Compound I-516] | –
50 | ≤ 25% | Cc1cc(C(=O)Nc2cc[nH]n2)ccc1-c1cn(CC2CCCCO2)nn1 (stereo not shown) [Compound I-559] | –
51 | > 75% | Cc1cc(C#CCn2cc(C3CC3)nn2)ccc1-c1cn(CC2CCCCO2)nn1 (stereo not shown) [Compound I-645] | –
52 | ≤ 25% | Cc1cc(N2CCN(c3ccccn3)CC2)ccc1-c1cn(CC2CCCCO2)nn1 (stereo not shown) [Compound I-533] | –
53 | > 75% | CN(C)c1cc(N2CC3(COC3)C2)ccc1-c1cn(CC2OCC(C)(C)CO2)nn1 [Compound I-756] | pIC50: 6.00 to 6.52
54 | 25 to 50% | Cc1cc(N2CC(C)(CO)C2)ccc1-c1cn(CC2OCC(C)(C)O2)nn1 (stereo not shown) [Compound I-626] | –
55 | ≤ 25% | Cc1cc(N2CC3(CC3)C2)cnc1-c1cn(CC2CCCCO2)nn1 (stereo not shown) [Compound I-571] | –
56 | ≤ 25% | Cc1cc(C#CC2CC2)ccc1-c1cn(CC23CC(CO2)C3)nn1 [Compound I-525] | –
57 | > 75% | Cc1cc(N2CC(C)(C)C2)ccc1-c1cn(CC2OCC(C)(C)CO2)nn1 [Compound I-665] | pIC50: ≥ 6.52
58 | ≤ 25% | COC(c1cn(CC2CCCCO2)nn1)c1cc(N2CC(C)(C)C2)ccc1C (stereo not shown) [Compound I-593] | –
59 | 25 to 50% | COC(=O)NCC#Cc1ccc(-c2cn(CC3CCCCO3)nn2)c(C)c1 (stereo not shown) [Compound I-607] | –
60 | ≤ 25% | Cc1cc(C2CCN(c3ccccn3)CC2)ccc1-c1cn(CC2CCCCO2)nn1 (stereo not shown) [Compound I-583] | –
61 | ≤ 25% | CN(C)c1cc(N2CC3(COC3)C2)ccc1-c1cn(CC2OCC3(CC3)CO2)nn1 [Compound I-853] | –
62 | ≤ 25% | Cc1cc(C2CCN(Cc3ccccn3)CC2)cnc1Cc1cn(CC2CCCCO2)nn1 (stereo not shown) [Compound I-504] | –
63 | > 75% | COC(c1cn(CC2OCC(F)(F)CO2)nn1)c1cc(C#CC2CC2)c(F)cc1C (stereo not shown) [Compound I-723] | –
64 | 50 to 75% | COC(c1cn(CC2CCCCO2)nn1)c1cc(C#CC2CC2)ccc1F (stereo not shown) [Compound I-621] | –
65 | 50 to 75% | Cc1ccc(C#CC2CC2)cc1Cc1cn(C[C@H]2CCCCO2)nn1 [Compound I-587] | pIC50: 6.00 to 6.52
66 | ≤ 25% | Cc1ccc(N2CCN(Cc3ccccn3)CC2)cc1-c1cn(CC2CCCCO2)nn1 (stereo not shown) [Compound I-564] | –
67 | 50 to 75% | CCc1cc(C#CCN2CC(C)(CO)C2)cnc1-c1cn(CC2OCC(C)(C)CO2)nn1 [Compound I-789] | pIC50: 6.00 to 6.52
68 | 25 to 50% | Cc1cc(C#CCN)ccc1-c1cn(CC2OCC(C)(C)CO2)nn1 [Compound I-690] | –
69 | ≤ 25% | Cc1cc(N2CC(C)(CN3CC(C)(C)C3)C2)ccc1-c1cn(CC2CCCCO2)nn1 (stereo not shown) [Compound I-660] | –
70 | > 75% | CCc1cc(C#CCNc2ccccn2)cnc1-c1cn(C[C@H]2CCCCO2)nn1 [Compound I-658] | pIC50: < 5.52
71 | 50 to 75% | Cc1cc(N2CCN(Cc3cccnn3)CC2)ccc1-c1cn(CC2CCCCO2)nn1 (stereo not shown) [Compound I-548] | pIC50: < 5.52
72 | > 75% | CC1(NCc2ccccn2)CN(c2ccc(-c3cn(CC4CCCCO4)nn3)c(CC(F)(F)F)c2)C1 (stereo not shown) [Compound I-744] | pIC50: 6.00 to 6.52
73 | > 75% | Cc1cc(C#CCNC(=O)OC(C)C)ccc1-c1cn(CC2CCCCO2)nn1 (stereo not shown) [Compound I-616] | pIC50: < 5.52
74 | > 75% | CN(c1cccc(C#N)c1)c1cn(CC2OCC(C)(C)CO2)nn1 [Compound I-802] | –
